Experimental data from patent US12384775B2, “Pyrimid-2-yl-pyrazole compounds as IRAK inhibitors” (Rigel Pharmaceuticals, Inc., priority 2022, dated 2025).

Experiments:
[1] = tested on: Gardiquimod-Induced IL-6 in Human Blood; experiment: Gardiquimod-induced IL-6 in human whole blood; assay type: cell-based; settings: Gardiquimod 4 μg/ml overnight, read-out: Human Whole Blood Assays (IC5050), IL-6 Gard
Experimental: To assess the effect of whole blood on the potency of compound I-1 and Comparison-1, the compounds were evaluated for their inhibitory potential on TLR dependent cytokine release in human blood. Freshly drawn peripheral blood from healthy volunteers was incubated with test compound and stimulated overnight with LPS or Gardiquimod. The serum was isolated after centrifugation and TNF-α and IL-6 were measured by ELISA.
Whole blood of healthy volunteers was collected in Vacutainer containing Sodium Heparin and 40 μL of blood was plated to each well. Compound was serially diluted in DMSO from 2 mM in 3-fold dilutions, and then diluted 1:100 in media with 10% FBS. 50 μL of 2× compound per well in duplicate was added to each well and incubated for one hour. 10 μL Gardiquimod was added to each well at a final concentration of 4 μg/ml and cells were incubated overnight.
100 μL of PBS was added to each well and centrifuged for 10 minutes at 1000 RPM 25 μL of supernatant were taken, and IL-6 was measured by Luminex Flexmap 3d.

[2] = Plasma protein binding, equilibrium dialysis (RED), monkey; assay type: in vitro ADME; settings: drug 5 μM; for fraction unbound at 5 μM: read-out: % bound (converted); for recovery at 5 μM: value above 100% due to experimental error (footnote)
Experimental: Brain and plasma drug binding were performed by equilibrium dialysis using the Rapid Equilibrium Dialysis (RED) device. Briefly, 300 μL of plasma or brain homogenate (1 brain/3 buffer) containing drug (5 μM) was equilibrated (4-18 h) against 500 μL of buffered saline. After incubation, the concentration of drug in plasma/brain homogenate and buffer was determined by LC-MS/MS.
Recovery is calculated by determining the total amount of drug in 50 μL of plasma and 50 μL buffer after the incubation and comparing that value to the amount of drug in 50 μL of a plasma sample that was not incubated. For the protein binding assay, drug was added to the plasma and this plasma was added to one side of the dialysis device while buffer was added to the other. After filing the plasma chamber of the equilibrium device, a 50 μL aliquot of plasma was mixed with 50 μL of buffer and then quenched with stop reagent. Drug recovery=(Drug buffer+Drug plasma)/(drug in initial plasma)

IRAK1 = IRAK1 (Homo sapiens, UniProt P51617); experiment: IRAK1 Adapta assay; assay type: biochemical; settings: for IC50: n = 1, read-out: IRAK4 IC50 Adapta (n = 1)
Sequence of IRAK1 (P51617 whole entry): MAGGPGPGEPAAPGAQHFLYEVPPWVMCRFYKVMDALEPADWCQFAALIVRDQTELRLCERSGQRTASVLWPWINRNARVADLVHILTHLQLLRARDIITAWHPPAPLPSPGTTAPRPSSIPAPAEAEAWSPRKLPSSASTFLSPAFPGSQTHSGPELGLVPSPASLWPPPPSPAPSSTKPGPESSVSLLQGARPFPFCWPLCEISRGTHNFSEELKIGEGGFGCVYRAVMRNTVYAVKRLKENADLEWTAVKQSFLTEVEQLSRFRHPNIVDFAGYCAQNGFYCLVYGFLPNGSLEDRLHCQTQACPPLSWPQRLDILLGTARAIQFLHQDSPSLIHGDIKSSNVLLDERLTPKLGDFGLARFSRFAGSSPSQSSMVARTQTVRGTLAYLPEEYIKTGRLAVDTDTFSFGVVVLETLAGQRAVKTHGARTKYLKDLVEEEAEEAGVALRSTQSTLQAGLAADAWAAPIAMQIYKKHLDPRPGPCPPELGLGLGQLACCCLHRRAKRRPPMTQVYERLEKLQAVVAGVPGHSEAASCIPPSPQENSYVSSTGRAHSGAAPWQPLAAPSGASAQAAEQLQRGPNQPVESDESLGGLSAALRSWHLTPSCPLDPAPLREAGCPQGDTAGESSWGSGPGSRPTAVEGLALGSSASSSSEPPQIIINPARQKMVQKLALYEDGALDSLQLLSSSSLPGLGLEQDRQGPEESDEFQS
Experimental: • Bar-coded Corning, low volume, white 384-well plate (Corning Cat. #4512) • Test Compounds: The Test Compounds are screened in 1% DMSO (final) in the well. For 10 point titrations, 3-fold serial dilutions 10 μM. • Substrate/Kinase Mixture: The 2×IRAK1/Histone H3 (1-20) peptide mixture is prepared in 50 mM HEPES pH 7.5, 0.01% BRIJ-35, 10 mM MgCl2, 1 mM EGTA. • ATP Solution: All ATP Solutions are diluted to a 4× working concentration in water. • ATP Km apparent is previously determined using a radiometric assay except when no substrate is available in which case an Adapta assay is conducted. • Detection Mix: The Detection Mix is prepared in TR-FRET Dilution Buffer. The Detection mix consists of EDTA (30 mM), Eu-anti-ADP antibody (6 nM) and ADP tracer. The detection mix contains the EC60 concentration of tracer for 5-150 μM ATP. IRAK1 Method • 1. 100 nL—100× Test Compound in 100% DMSO • 2. 2.4 μL—30 mM HEPES • 3. 2.5 μL—4×ATP Solution • 4. 5 μL—2× Substrate/Kinase Mixture
The final 10 μL Kinase Reaction consists of 3.17-42 ng IRAK1 and 100 μM Histone H3 (1-20) peptide in 32.5 mM HEPES pH 7.5, 0.005% BRIJ-35, 5 mM MgCl2, 0.5 mM EGTA. • 5. 30-second plate shake • 6. 1-minute centrifuge at 1000× g • 7. 60-minute Kinase Reaction incubation at room temperature • 8. 5 μL—Detection Mix • 9. 30-second plate shake • 10. 1-minute centrifuge at 1000× g • 11. 60-minute Detection Mix equilibration at room temperature • 12. Read on fluorescence plate reader and analyze the data

IRAK4 = target: T1, IRAK4 (Homo sapiens, UniProt Q9NWZ3); experiment: IRAK4 Z'-LYTE assay; assay type: biochemical; settings: for IC50: n = 1
T1 construct: purchased Signalchem I12-10G-20
T1 sequence (Q9NWZ3 1-460): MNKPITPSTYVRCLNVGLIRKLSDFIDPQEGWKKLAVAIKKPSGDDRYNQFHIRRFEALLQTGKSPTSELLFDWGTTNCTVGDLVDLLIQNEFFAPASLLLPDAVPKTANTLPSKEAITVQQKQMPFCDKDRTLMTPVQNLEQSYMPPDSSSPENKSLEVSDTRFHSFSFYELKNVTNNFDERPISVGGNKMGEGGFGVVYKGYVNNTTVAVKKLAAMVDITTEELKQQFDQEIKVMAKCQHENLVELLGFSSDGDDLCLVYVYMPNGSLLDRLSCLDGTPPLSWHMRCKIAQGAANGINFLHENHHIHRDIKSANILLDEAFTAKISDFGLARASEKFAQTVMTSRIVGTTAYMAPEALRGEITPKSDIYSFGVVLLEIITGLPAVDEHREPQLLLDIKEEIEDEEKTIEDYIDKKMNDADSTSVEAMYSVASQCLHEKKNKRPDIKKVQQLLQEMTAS
Experimental: • Bar-coded Corning, low volume NBS, black 384-well plate (Corning Cat. #4514) • Test Compounds: The Test Compounds are screened in 1% DMSO (final) in the well. For 10 point titrations, 3-fold serial dilutions are conducted from 10 µM. • Peptide/Kinase Mixture: The 2×IRAK4/Ser/Thr 07 mixture is prepared in 50 mM HEPES pH 7.5, 0.01% BRIJ-35, 10 mM MnCl2, 1 mM EGTA, 2 mM DTT, 0.02% NaN3. • ATP Solution: All ATP Solutions are diluted to a 4× working concentration in Kinase Buffer (50 mM HEPES pH 7.5, 0.01% BRIJ-35, 10 mM MgCl2, 1 mM EGTA). ATP Km apparent is previously determined using a Z-LYTE® assay. • Development Reagent Solution: The Development Reagent is diluted 1:45000 in Development Buffer. General Method • 1. 100 nL—100× Test Compound in 100% DMSO • 2. […]—Kinase buffer • 3. 5 μL—2× Peptide/Kinase Mixture • 4. 2.5 μL—4×ATP Solution
The final 10 μL Kinase Reaction consists of 3.45-63.6 ng IRAK4 and 2 μM Ser/Thr 07 in 50 mM HEPES pH 7.5, 0.01% BRIJ-35, 5 mM MgCl2, 5 mM MnCl2, 1 mM EGTA, 1 mM DTT, 0.01% NaN3. • 5. 30-second plate shake • 6. 60-minute Kinase Reaction incubation at room temperature • 7. 5 μL—Development Reagent Solution • 8. 30-second plate shake • 9. 60-minute Development Reaction incubation at room temperature • 10. Read on fluorescence plate reader and analyze the data

Compound	IC50 [1] [µM]	fraction unbound at 5 μM [2]	recovery at 5 μM [2] [%]	IC50 (IRAK1) [µM]	IC50 (IRAK4) [µM]	EC50 (IRAK1) [µM]	EC50 (IRAK4) [µM]
CCO[C@H]1CC[C@H](n2cc(NC(=O)c3csc(-c4cn[nH]c4)n3)c(-c3nc(F)ccc3F)n2)CC1 [Comparison-1, reference compound]	1.4	0.003	71.6	0.014	0.015		
CCO[C@H]1CC[C@H](n2cc(NC(=O)c3csc(-c4cn[nH]c4)n3)c(-c3ncccn3)n2)CC1 [Compound I-1, N-(1-((1r,4r)-4-ethoxycyclohexyl)-3-(pyrimidin-2-yl)-1H-pyrazol-4-yl)-2-(1H-pyrazol-4-yl)thiazole-4-carboxamide]	0.124	0.017	104	0.004	0.006	0.004	0.006
